Measurements from ChEMBL document CHEMBL1201862, “PubChem BioAssay data set” (2004).
“And” between values parts separate entries of the source, which are not always exact repeats. Identical values can stand only once.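 All cell lines were grown in 96-well plates and treated with compound for 48 hours. GI50 = concentration required for 50% inhibition of growth.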 The source made the active and inactive calls. Cut-off read from the data, not from the text of the source: active = GI50 up to about 1.1 µM and inactive = higher.

What was measured:
Experiment in all cases: DTP human tumour cell line panel, 48 h
DLD-1 = system: DLD-1
DMS-114 = system: DMS-114
DMS-273 = system: DMS-273
HOP-18 = system: HOP-18
LXFL 529 = system: LXFL 529
M19-MEL = system: M19-MEL
SNB-78 = system: SNB-78
XF498 = system: XF498
RXF 631 = system: RXF 631

Measured: GI50

S=c1sc2c(Cl)ncnc2n1-c1ccccc1
inactive: DLD-1 11.5 µM | DMS-114 13.6 µM | DMS-273 1.51 µM | HOP-18 19 µM | LXFL 529 12.4 µM | M19-MEL 3.8 µM | SNB-78 10.5 µM | XF498 15.2 µM

CC1C(c2ccccc2)=CCON1c1ccccc1 (configuration not stated)
inactive: DLD-1 > 100 µM | DMS-114 > 100 µM | LXFL 529 > 100 µM | M19-MEL > 100 µM | SNB-78 > 100 µM | XF498 > 100 µM

NC(=O)/C(=N\NC(=O)C[n+]1ccccc1)C1NC(=O)NC1=O (configuration not stated)
inactive: DLD-1 > 100 µM | DMS-114 > 100 µM | DMS-273 > 100 µM | HOP-18 > 100 µM | LXFL 529 > 100 µM | M19-MEL > 100 µM | RXF 631 > 100 µM | SNB-78 > 100 µM | XF498 > 100 µM

CCCCN(CC)CC(C(C)=O)c1c(O)c2ccccc2oc1=O (configuration not stated)
inactive: DLD-1 > 100 µM | DMS-114 > 100 µM | DMS-273 > 100 µM | HOP-18 > 100 µM | LXFL 529 > 100 µM | M19-MEL > 100 µM | SNB-78 > 100 µM | XF498 > 100 µM

Cc1ccc(S(=O)(=O)OCC23CCC(C4CC42)C2CC23)cc1 (configuration not stated)
inactive: DLD-1 > 100 µM | DMS-114 37.5 µM | DMS-273 68.2 µM | HOP-18 > 100 µM | LXFL 529 65 µM | M19-MEL 60.7 µM | RXF 631 > 100 µM

C[C@]12CCC3[C@@H](CC[C@@H]4c5nonc5CC[C@]34C)C1CC[C@@H]2O (some centres not stated)
inactive: DLD-1 26.3 µM | DMS-114 29.2 µM | DMS-273 23.9 µM | HOP-18 36.4 µM | LXFL 529 37 µM | M19-MEL 48 µM | RXF 631 33.1 µM | SNB-78 38.6 µM | XF498 20.3 µM

COc1cc(/C=C2\NC(=S)C3Cc4c(OC)c(C)c(OC)c(OC)c4C2N3C)c(OC)c(C)c1OC (configuration not stated)
inactive: DLD-1 51.1 µM | DMS-114 27.5 µM | DMS-273 46.9 µM | HOP-18 27.8 µM | LXFL 529 28.8 µM | M19-MEL 45.6 µM

Cc1ccc(NCC(=O)N2CC(=O)Nc3ccccc32)c(C)c1
inactive: DLD-1 > 100 µM | DMS-273 > 100 µM | HOP-18 > 100 µM | LXFL 529 > 100 µM | M19-MEL > 100 µM | SNB-78 > 100 µM | XF498 > 100 µM

CCOC(=O)C(C(=O)c1ccccc1-c1ccccc1C(=O)O)=P(c1ccccc1)(c1ccccc1)c1ccccc1
inactive: DMS-114 20.1 µM | DMS-273 31.8 µM | LXFL 529 24.9 µM | M19-MEL 27.8 µM | RXF 631 37.8 µM | XF498 23.3 µM

CCN(CC)CC(C)(C)C(=O)/C=C/c1cccc(/C=C/C(=O)C(C)(C)CN(CC)CC)c1
inactive: HOP-18 1.51 µM | SNB-78 2.21 µM
active: DLD-1 0.237 µM | DMS-114 0.307 µM | DMS-273 0.476 µM | LXFL 529 0.331 µM | M19-MEL 0.959 µM | RXF 631 1.09 µM | XF498 0.409 µM

Cc1ccccc1/N=N/c1c(-c2ccccc2)nn(C(=O)CC(=O)Nc2cccc(Cl)c2)c1-c1ccccc1
inactive: DLD-1 20.4 µM | DMS-114 14.9 µM | DMS-273 20 µM | HOP-18 25.7 µM | LXFL 529 21.6 µM | M19-MEL > 10 µM | SNB-78 23.5 µM | XF498 28.2 µM

Cc1cc2c(c(C#N)c1C)NC(=O)CCC2=O
inactive: DLD-1 > 100 µM | DMS-114 > 100 µM | DMS-273 > 100 µM | LXFL 529 > 100 µM | M19-MEL > 100 µM | RXF 631 > 100 µM | SNB-78 > 100 µM | XF498 > 100 µM

COc1ccc(-c2cc(-c3ccco3)c(C#N)c(=O)n2C2OC(OC(=O)c3ccccc3)C(OC(=O)c3ccccc3)C2OC(=O)c2ccccc2)cc1 (configuration not stated)
inactive: DLD-1 > 100 µM | DMS-114 > 100 µM | DMS-273 63.4 µM | HOP-18 > 100 µM | LXFL 529 > 100 µM | M19-MEL > 100 µM | RXF 631 > 100 µM | SNB-78 > 100 µM

C=CC1(C(=O)O)CCC(C(C)(C)C)CC1 (configuration not stated)
inactive: DLD-1 > 100 µM | DMS-114 > 100 µM | DMS-273 > 100 µM | HOP-18 > 100 µM | LXFL 529 > 100 µM | M19-MEL > 100 µM | RXF 631 > 100 µM | SNB-78 > 100 µM | XF498 > 100 µM

COc1cc2c(cc1OC)[C@H]1C(COC(=O)c3ccccc3)CS/C(=N/c3ccccc3)N1CC2 (some centres not stated)
inactive: DLD-1 > 100 µM | DMS-114 17.1 µM | DMS-273 74 µM | HOP-18 > 100 µM | LXFL 529 24.4 µM | M19-MEL > 100 µM | SNB-78 27 µM | XF498 > 100 µM

COC(=O)C(CCCCCCCC(C(=O)OC)C1=Nc2nnc(N)n2C1=O)C1=Nc2nnc(N)n2C1=O (configuration not stated)
inactive: DLD-1 > 100 µM | DMS-114 > 100 µM | DMS-273 > 100 µM | HOP-18 > 100 µM | LXFL 529 > 100 µM | M19-MEL 26.1 µM | RXF 631 > 100 µM | SNB-78 > 100 µM | XF498 > 100 µM

CC(=O)OCC12CC(CC1OC(C)=O)c1ccccc12 (configuration not stated)
inactive: DMS-114 > 100 µM | DMS-273 > 100 µM | HOP-18 > 100 µM | LXFL 529 > 100 µM | M19-MEL > 100 µM | RXF 631 > 100 µM

COc1cc2c(Cc3cc(OCc4ccccc4)ccc3N)nccc2c(OC)c1OC
inactive: DLD-1 > 10 µM | DMS-114 > 10 µM | DMS-273 > 10 µM | HOP-18 > 10 µM | LXFL 529 > 10 µM | M19-MEL > 10 µM | RXF 631 6.55 µM | SNB-78 > 10 µM | XF498 > 10 µM

COc1ccc(C(=O)O/N=C2/CCCCC2CN(C)C)cc1 (configuration not stated)
inactive: DLD-1 > 100 µM | DMS-273 > 100 µM | HOP-18 > 100 µM | LXFL 529 > 100 µM | M19-MEL > 100 µM | RXF 631 > 100 µM | SNB-78 > 100 µM

COc1ccccc1/C=N/C12CC3CC(CC(C3)C1)C2
inactive: DMS-114 > 10 µM | DMS-273 > 100 µM | M19-MEL > 100 µM

N#CC(c1ccccc1)c1nc2ccc(N)cc2[n+]([O-])c1C(C#N)c1ccccc1 (configuration not stated)
inactive: DLD-1 43.6 µM | DMS-273 45.9 µM | HOP-18 > 100 µM | LXFL 529 51.1 µM | M19-MEL 55.1 µM | RXF 631 86.9 µM | SNB-78 > 100 µM | XF498 48.5 µM

C[C@@H]1CC[C@@]2(C)OC(c3ccccc3)[C@H](CO)N2C1=O (some centres not stated)
inactive: DLD-1 > 100 µM | DMS-114 > 100 µM | DMS-273 > 100 µM | HOP-18 > 100 µM | M19-MEL > 100 µM | SNB-78 > 100 µM | XF498 > 100 µM

O=c1ncccn1[C@@H]1O[C@H](CO)[C@@H](O)[C@@H]1F
inactive: DMS-114 > 100 µM and > 58.7 µM | DMS-273 > 100 µM | HOP-18 > 100 µM | LXFL 529 > 100 µM | M19-MEL > 100 µM | RXF 631 > 51.6 µM | SNB-78 > 100 µM | XF498 > 100 µM

CCOC(=O)C(Cc1cn(S(=O)(=O)c2ccccc2)c2ccccc12)(NC(C)=O)C(=O)OCC
inactive: DLD-1 40.1 µM | DMS-114 23.9 µM | DMS-273 35 µM | LXFL 529 27.7 µM | M19-MEL 40.7 µM | XF498 29.7 µM

O=C(O)CCCc1ccc(N(CCCl)CCCl)cc1 [CHLORAMBUCIL]
inactive: DLD-1 104 µM | DMS-114 45.1 µM | DMS-273 23.7 µM | HOP-18 > 81.1 µM | LXFL 529 95.5 µM | M19-MEL 87.7 µM | RXF 631 86.9 µM | XF498 55.1 µM
